Data on six compounds can be found in US10406264B2, “Peptide having titanium-binding ability” (NANO INTELLIGENT BIOMEDICAL ENGINEERING CORPORATION. CO. LTD, priority 2016, dated 2019).

Where a SMILES comes first, the peptide text is derived from it. Where no end group is shown, it is not given here. [ ]: non-standard residue; d: D form. Ahx = NCCCCCC(=O)O

The subject of one data set is PDLSC cells. In words: cell viability test (trypan blue count) on peptide-coated titanium discs. It is filed as cell-based. Particulars: for cytotoxicity for cells: administered alone, 3 days of incubation, FIG. 5; for Total cell number (viable cells), Average: average of #1 and #2; for Total cell number (viable cells), Average / Total cell number (viable cells), #1 / Total cell number (viable cells), #2: PDLSC, 3 days culture, disc coated per Table 2 (peptides 100 μM, BMP-2 100 ng/ml); for Total cell number (viable cells), #1: replicate #1; for Total cell number (viable cells), #2: replicate #2. On the procedure: In order to evaluate whether or not a titanium binding peptide-linked osteogenic peptide (SEQ ID NO: 3 or SEQ ID NO: 4) and a titanium-binding peptide (SEQ ID NO: 1) are cytotoxic when these peptides are administered alone, a cell viability test was performed.
Specifically, one titanium disc was placed in each well of a 24-well low-attachment polystyrene plate and blocked with a blocking solution (0.1 M NaHCO3 (pH 8.6), 5 mg/ml BSA, 0.02% NaN3 (optional), filter sterilize) for at least 1 hour. Next, the blocking solution was discarded, and each well was washed three times or more with a washing solution (DPBS: Dulbeccos phosphate buffered saline), after which 50 μl of the solution shown in Table 2 below was dispensed and coated on the surface of each titanium disc. Each well was incubated at room temperature for 15 hours, and then washed three times or more with a washing solution (DPBS). Next, 3×10^4 PDLSC cells suspended in 50 μl of a medium (Minimum Essential Medium Eagle Alpha Modifications, Hyclone, USA) containing 10% FBS (Fetal Bovine Serum) and 1% antibiotic-antimycotic solution (Thermo Fisher Scientific, USA) were dispensed per titanium disc. […] Next, the cells were detached, stained with trypan blue, and counted with a hematocytometer to determine the number of viable cells.

A short description of data set [1]: binding assay using an avidin-biotin complex (binding affinity for titanium). Particulars: biotin-labeled peptide 100 nM to 1 μM, 15 hours at room temperature, FIG. 1. On the procedure:
In order to examine the binding affinities of the peptides synthesized in Example 1 and Comparative Examples 1 and 2 for titanium, the peptides were labeled with biotin. Each of the peptides was biotinylated using EZ-Link Sulfo-NHS-Biotin (Pierce Biotechnology, USA) according to the manufacturer's instruction, and unbound byproducts were removed by ultrafiltration that is a membrane separation method based on a pressure difference. The molecular weights of the synthesized products were measured by mass spectrometry. The synthesized products were analyzed and purified by reverse phase liquid chromatography. For analysis, a C18 column having a diameter of 4.6 mm was used, and 0.1% TFA/H2O and 0.092% TFA/acetonitrile were flushed onto the column at a rate of 1 ml/min with a gradient of 0-60% for 30 minutes. The wavelength of the UV detector used was 220 nm. For purification, a column having a diameter of 2.2 cm was used, and a flow rate of 20 ml/min and the solvent and detection wavelength as described above were used. Only the biotin-labeled peptide fraction was collected, and concentrated using a rotary evaporator to remove the solvent, followed by freeze-drying.
The binding affinity of the titanium-binding peptide for titanium was measured by performing a binding assay using an avidin-biotin complex. Specifically, one titanium disc was placed in each well of a 24-well polystyrene plate, and then blocked with a blocking buffer (0.1 M NaHCO3 (pH 8.6), 5 mg/ml BSA, 0.02% NaN3 (optional), filter sterilize) for at least one hour. […] Each titanium disc was treated with 50 μl of 1% SDS solution to stop the reaction, and the absorbance at 405 nm was measured.

Data set [2] in a line: luminescent image analysis with enhanced chemiluminescence (ECL) solution. The format is binding. Particulars: ECL solution as substrate, FIG. 2. The protocol: Specifically, washing was performed at least three times with suitable washing solution to remove 2,2′-AZINO-BIS used as a substrate in the above procedure, and then analysis was performed with a luminescent image analyzer using enhanced chemiluminescence (ECL) solution.

The nature of data set [3]: maximum binding amount of titanium-binding peptide, avidin-biotin binding assay. On the procedure:
To examine the maximum binding amount of the titanium-binding peptide TBP (SEQ ID NO: 1) per unit area of the titanium disc surface, a binding assay using an avidin-biotin complex was performed. Specifically, one titanium disc was placed in each well of a 24-well polystyrene plate, and then blocked with a blocking buffer (0.1 M NaHCO3 (pH 8.6), 5 mg/ml BSA, 0.02% NaN3 (optional), filter sterilize) for at least one hour. Next, the blocking buffer was discarded, and each titanium disc was strongly washed six times or more with a washing buffer (TBS+0.1% [v/v] Tween-20), after which 50 μl of each of the titanium-binding peptide TBP (SEQ ID NO: 1) of Example 1 and the peptides TBP-C(SEQ ID NO: 2) and ZBP (SEQ ID NO: 5, Korean Patent Application No. 10-2015-0048441) of Comparative Examples 1 and 2, which were biotin-labeled, synthesized, separated and purified in Example 3-1, was dispensed to the surface of each titanium disc at a concentration ranging from 100 nM to 40 mM. Each titanium disc was incubated at room temperature for 15 hours, and then washed strongly with a washing buffer, and 50 μl of a 1:500 dilution of ExtrAvidin-peroxidase (Cat. #E2886, Sigma-Aldrich, USA) in a blocking buffer was dispensed to the surface of each titanium disc. Each titanium disc was incubated at room temperature for 1 hour, and then washed strongly with a washing buffer, after which 50 μl of a substrate solution (2,2′-AZINO-BIS, Cat. #A3219, Sigma-Aldrich, USA) was dispensed to the surface of each titanium disc and allowed to react at room temperature for 20 minutes so as to develop color. Each titanium disc was treated with 50 μl of 1% SDS solution to stop the reaction, and the absorbance at 405 nm was measured.

In data set [4] the test system is periodontal ligament stem cells (PDLSCs). In words: mineralization of periodontal ligament stem cells (Alizarin red S) on coated titanium discs. It is filed as cell-based. Particulars: day 18; significant p<0.05, not significant p>0.05. The protocol:
Specifically, one titanium disc was placed in each well of a 24-well low-attachment polystyrene plate and blocked with a blocking solution (0.1 M NaHCO3 (pH 8.6), 5 mg/ml BSA, 0.02% NaN3 (optional), filter sterilize) for at least 1 hour. […] Each well was incubated at room temperature for 15 hours, and then washed three times or more with a washing solution (DPBS). Next, 3×10^4 PDLSC cells suspended in 50 μl of a medium (Minimum Essential Medium Eagle Alpha Modifications, Hyclone, USA) containing 10% FBS (Fetal Bovine Serum) and 1% antibiotic-antimycotic solution (Thermo Fisher Scientific, USA) were dispensed per titanium disc.

Turning to `CC[C@H](C)[C@H](NC(=O)[C@H](CC(=O)O)NC(=O)[C@@H]1CCCN1C(=O)[C@H](CCCNC(=N)N)NC(=O)[C@H](CCCNC(=N)N)NC(=O)[C@H](Cc1ccccc1)NC(=O)[C@H](CCCCN)NC(=O)[C@H](CCCCN)NC(=O)[C@H](CO)NC(=O)[C@H](CCCCN)NC(=O)[C@H](CO)NC(=O)[C@H](CCCNC(=N)N)NC(=O)[C@H](CC(C)C)NC(=O)CNC(=O)CCCCCNC(=O)[C@H](Cc1c[nH]cn1)NC(=O)[C@@H](NC(=O)[C@@H](NC(=O)[C@@H]1CCCN1C(=O)[C@H](CCCNC(=N)N)NC(=O)[C@H](Cc1c[nH]cn1)NC(=O)CNC(=O)[C@@H](NC(=O)[C@H](Cc1ccc(O)cc1)NC(=O)[C@H](CC(N)=O)NC(=O)[C@H](CC(C)C)NC(=O)[C@@H](N)CO)[C@@H](C)O)C(C)C)C(C)C)C(=O)N[C@@H](CCC(N)=O)C(=O)N[C@@H](Cc1ccc(O)cc1)C(=O)N1CCC[C@H]1C(=O)N[C@@H](CC(=O)O)C(=O)N[C@@H](C)C(N)=O` [TBP-Linker-osteogenic peptide] (H-SLNYTGHRPVVH[Ahx]GLRSKSKKFRRPDIQYPDA-NH2), in the data set on PDLSC cells, the cytotoxicity for cells entry is reported as “not cytotoxic”; the “Total cell number (viable cells), Average” value (shortened to “Total cell number … Average”) was 6.8 × 10^4; the “Total cell number (viable cells), #1” value is listed as 6.0 × 10^4; the “Total cell number (viable cells), #2” value is listed as 7.5 × 10^4.

Regarding “GLRSKSKKFRRPDIQYPDA-NH2 [Osteogenic peptide, reference compound]”, in the data set on PDLSC cells, the “Total cell number … Average” value was 7.0 × 10^4; the “Total cell number (viable cells), #1” value is listed as 7.5 × 10^4; the “Total cell number (viable cells), #2” value was 6.5 × 10^4.

Regarding SLNATGARAVVA [TBP-C], the “binding to the titanium disc surface (absorbance at 405 nm)” value (from here on “binding to the titanium disc surface”) in data set [1] is on record as “do not bind to the titanium disc surface”. Also, the “binding to titanium disc detected by luminescent image analyzer” value (shortened to “binding to titanium disc detected”) in data set [2] was “hardly bind to a titanium disc”.

As for SLNYTGHRPVVH-NH2 [TBP], the “binding to the titanium disc surface” value in data set [1] was “binds to the titanium disc surface in a concentration-dependent manner”. The “binding to titanium disc detected” value in data set [2] is recorded as “binds to a titanium disc”. Further, the “concentration showing the maximum absorbance value” in data set [3] (100 nM to 40 mM tested, absorbance at 405 nm, FIGS. 3 and 4) was 100 µM. In data set [3] (back-calculation from molecular weight and dispensing amount, disc diameter 10 mm), the “maximum amount of titanium-binding peptide bound to the surface of one titanium disc” value was 8.025 µg. Besides, the “amount of titanium-binding peptide fixed per mm^2 of the titanium disc surface” value in data set [3] (disc diameter 10 mm) is listed as “about 0.1022 μg per mm^2”. In addition, in the data set with PDLSC cells, the cytotoxicity for cells result is “not cytotoxic”; the “Total cell number … Average” value was 7.0 × 10^4; the “Total cell number (viable cells), #1” value is 7.0 × 10^4; the “Total cell number (viable cells), #2” value was 7.0 × 10^4. The “mineralization (absorbance at 570 nm), difference versus NT (negative control) group” value in data set [4] is reported as “no statistically significant difference”.

As for “SLNYTGHRPVVHGLRSKSKKFRRPDIQYPDA-NH2 [TBP-osteogenic peptide]”, in the data set on PDLSC cells, the cytotoxicity for cells entry was “not cytotoxic”; the “Total cell number … Average” value is recorded as 7.8 × 10^4; the “Total cell number (viable cells), #1” value is reported as 7.5 × 10^4; the “Total cell number (viable cells), #2” value was 8.0 × 10^4.

As for “VSPFGTKWSPFV (Zirconia Binding Peptide) [ZBP]”, the “binding to the titanium disc surface” value in data set [1] was “do not bind to the titanium disc surface”. For the same compound, the “binding to titanium disc detected” value in data set [2] was “hardly bind to a titanium disc”.
